Laboratory results taken from patent US8557840B2, “Herbicidal compounds” (Syngenta Limited, priority 2008, dated 2013).

How the values were obtained:
Type in all cases: in vivo
[1] = system: test plants; experiment: Herbicidal action, post-emergence (Example B1), all test plants, result in words; settings: same protocol as Example B1, post-emergence
Experimental: (§1) Seeds of a variety of test species were sown in sterilised standard soil in seed trays each having 96 cells. […] The plants were grown in the climatic chamber after application at (24/19° C., day/night; 13 hours light; 50-60% humidity) and watered twice daily. After 9 days until the test was evaluated (10=total damage to plant, 0=no damage to plant)

[2] = system: Amaranthus retroflexus; experiment: Herbicidal action, post-emergence, pots in glasshouse (Example B2); settings: 1000 g/ha, evaluated after 13 days, 10=total damage to plant, 0=no damage to plant
Experimental: (§2) Seeds of a variety of test species were sown in standard soil in pots. After 8 days cultivation (post-emergence) under controlled conditions in a glasshouse (at 24/16° C., day/night; 14 hours light; 65% humidity), the plants were sprayed with an aqueous spray solution derived from the formulation of the technical active ingredient in acetone/water (50:50) solution containing 0.5% Tween 20 (polyoxyethelyene sorbitan monolaurate, CAS RN 9005-64-5). The test plants were then grown in a glasshouse under controlled conditions in a glasshouse (at 24/16° C., day/night; 14 hours light; 65% humidity) and watered twice daily. After 13 days, the test was evaluated (10=total damage to plant; 0=no damage to plant).

[3] = system: Echinochloa crus-galli; experiment: as above; settings: 1000 g/ha, evaluated after 13 days, 10=total damage to plant, 0=no damage to plant
Experimental: as §2

[4] = system: Ipomea hederaceae; experiment: as above; settings: 1000 g/ha, evaluated after 13 days, 10=total damage to plant, 0=no damage to plant
Experimental: as §2

[5] = system: Setaria faberi; experiment: as above; settings: 1000 g/ha, evaluated after 13 days, 10=total damage to plant, 0=no damage to plant
Experimental: as §2

[6] = system: Solanum nigrum; experiment: as above; settings: 1000 g/ha, evaluated after 13 days, 10=total damage to plant, 0=no damage to plant
Experimental: as §2

[7] = system: Amaranthus retroflexus; experiment: Herbicidal action, post-emergence, seed trays in climatic chamber (Example B1); settings: 1000 g/ha, evaluated after 9 days, 10=total damage to plant, 0=no damage to plant
Experimental: as §1

[8] = system: Nasturtium officinale; experiment: as above; settings: 1000 g/ha, evaluated after 9 days, 10=total damage to plant, 0=no damage to plant
Experimental: as §1

[9] = system: Solanum nigrum; experiment: as above; settings: 1000 g/ha, evaluated after 9 days, 10=total damage to plant, 0=no damage to plant
Experimental: as §1

[10] = system: Stellaria media; experiment: as above; settings: 1000 g/ha, evaluated after 9 days, 10=total damage to plant, 0=no damage to plant
Experimental: as §1

Structure (SMILES)	damage to the test plants [1]	AMARE damage to plant [2]	ECHCG damage to plant [3]	IPOHE damage to plant [4]	SETFA damage to plant [5]	SOLNI damage to plant [6]	other results
O=c1[nH]c2cnncc2c(O)c1-c1c(F)cc(F)cc1F [E13]	little or no damage	–	–	–	–	–	–
O=c1[nH]c2ncc(Br)cc2c(O)c1-c1c(F)cc(F)cc1F [D28]	little or no damage	–	–	–	–	–	–
Cn1c(=O)c(-c2c(F)ccc(F)c2Cl)c(O)c2ccc(C(F)(F)F)nc21 [D29]	–	6	0	7	0	4	–
O=c1[nH]c2ncccc2c(O)c1-c1cccnc1 [D11, 4-Hydroxy-3-pyridin-3-yl-1H-[1,8]naphthyridin-2-one]	little or no damage	–	–	–	–	–	–
O=c1[nH]c2ncccc2c(O)c1-c1c(F)ccc(F)c1Cl [D4]	little or no damage	–	–	–	–	–	–
O=c1[nH]c2ccncc2c(O)c1-c1c(F)ccc(F)c1Cl [B2]	little or no damage	–	–	–	–	–	–
Cn1c(=O)c(-c2c(F)ccc(F)c2Cl)c(O)c2ccncc21 [C1]	–	0	0	2	0	0	–
CCc1cc(C)cc(CC)c1-c1c(O)c2cccnc2n(C)c1=O [D20, 3-(2,6-diethyl-4-methyl-phenyl)-4-hydroxy-1-methyl-1H-[1,8]naphthyridin-2-one]	–	–	–	–	–	–	AMARE damage to plant [7]: 0; NAAOF damage to plant [8]: 5; SOLNI damage to plant [9]: 0; STEME damage to plant [10]: 5
Cn1c(=O)c(-c2c(F)ccc(F)c2Cl)c(O)c2ccc(Cl)nc21 [D22]	–	2	1	6	0	4	–
Cc1cc2c(c(Cl)n1)c(O)c(-c1c(F)ccc(F)c1Cl)c(=O)n2C [B4]	–	0	0	2	0	2	–
O=c1[nH]c2ncncc2c(O)c1-c1c(F)cc(F)cc1F [E10]	little or no damage	–	–	–	–	–	–
O=c1[nH]c2ncccc2c(O)c1-c1c(F)ccc(Br)c1Cl [D33]	–	1	0	7	0	3	–
COc1cccc(-c2c(O)c3cccnc3[nH]c2=O)c1 [D25]	little or no damage	–	–	–	–	–	–
O=c1[nH]c2ncccc2c(O)c1-c1c(Cl)cccc1Cl [D2]	little or no damage	–	–	–	–	–	–
O=c1[nH]c2cccnc2c(O)c1-c1ccccn1 [A8]	little or no damage	–	–	–	–	–	–
O=c1c(-c2c(F)ccc(Br)c2Cl)c(O)c2cccnc2n1CC(F)F [D32]	–	4	1	6	1	7	–
CCn1c(=O)c(-c2c(F)ccc(F)c2Cl)c(OC(=O)C(C)C)c2cncnc21 [E2]	–	5	2	2	0	4	–
O=c1[nH]c2ncc(Br)cc2c(O)c1-c1c(F)cccc1F [D27]	little or no damage	–	–	–	–	–	–
CC(C)(C)C(=O)Oc1c(-c2c(F)ccc(F)c2Cl)c(=O)[nH]c2nc(Cl)ccc12 [D15]	little or no damage	–	–	–	–	–	–
O=c1[nH]c2nncnc2c(O)c1-c1c(F)cc(F)cc1F [E11]	little or no damage	–	–	–	–	–	–
O=c1[nH]c2nc(Cl)ccc2c(O)c1-c1c(F)ccc(F)c1Cl [D14]	–	4	4	0	0	0	–
CC(C)(C)C(=O)Oc1c(-c2c(F)ccc(F)c2Cl)c(=O)n(CC(F)F)c2ncccc12 [D10, 2,2-dimethyl-propionic acid 3-(2-chloro-3,6-difluoro-phenyl)-1-(2,2-difluoro-ethyl)-2-oxo-1,2-dihydro-[1,8]naphthyridin-4-yl ester]	–	7	0	6	0	7	–

Structure (SMILES)	damage to the test plants [1]	AMARE damage to plant [2]	ECHCG damage to plant [3]	IPOHE damage to plant [4]	SETFA damage to plant [5]	SOLNI damage to plant [6]	other results
CCn1c(=O)c(-c2c(F)ccc(Cl)c2Cl)c(O)c2c(OC)ccnc21 [D26]	–	6	4	6	4	6	–
O=c1[nH]c2ncccc2c(O)c1-c1ccccn1 [D12]	little or no damage	–	–	–	–	–	–
O=c1[nH]c2cnccc2c(O)c1-c1c(F)cc(F)cc1F [C3]	little or no damage	–	–	–	–	–	–
O=c1[nH]c2ncccc2c(O)c1-c1ccccc1OC(F)(F)F [D3]	little or no damage	–	–	–	–	–	–
CC(C)C(=O)Oc1c(-c2c(F)ccc(F)c2Cl)c(=O)n(C)c2cnccc12 [C2]	–	3	0	5	0	2	–
Cc1cc(C)c(-c2c(O)c3cccnc3n(C)c2=O)c(C)c1 [D24]	–	0	0	1	0	1	–
Cc1cc(Cl)c2c(O)c(-c3c(F)ccc(F)c3Cl)c(=O)n(C)c2n1 [D18]	–	2	0	0	2	3	–
O=c1c(-c2c(F)ccc(F)c2Cl)c(O)c2cccnc2n1CC(F)F [D21, 3-(2-chloro-3,6-difluoro-phenyl)-1-(2,2-difluoro-ethyl)-4-hydroxy-1H-[1,8]naphthyridin-2-one]	–	10	2	9	1	10	–
Cn1c(=O)c(-c2c(F)ccc(F)c2Cl)c(OC(=O)C(C)(C)C)c2ccc(C(F)(F)F)nc21 [D30]	–	0	0	2	0	2	–
CC(C)C(=O)Oc1c(-c2c(F)ccc(F)c2Cl)c(=O)n(CC(F)F)c2ncncc12 [E3]	–	7	0	1	0	5	–
CC(C)C(=O)Oc1c(-c2c(F)ccc(Br)c2Cl)c(=O)n(CC(F)F)c2ncccc12 [D23, isobutyric acid 3-(3-bromo-2-chloro-6-fluoro-phenyl)-1-(2,2-difluoro-ethyl)-2-oxo-1,2-dihydro-[1,8]naphthyridin-4-yl ester]	–	4	1	4	0	9	–
Cc1cc(C)c(-c2c(O)c3ncnnc3[nH]c2=O)c(C)c1 [E12]	–	5	10	3	10	1	–
CCOC(=O)Oc1c(-c2c(C)cc(C)cc2C)c(=O)[nH]c2nncnc12 [E9]	–	0	10	1	9	0	–
O=c1[nH]c2nncnc2c(O)c1-c1c(F)cccc1Cl [E7]	little or no damage	–	–	–	–	–	–
O=c1[nH]c2cccnc2c(O)c1-c1c(F)cc(F)cc1F [A9]	little or no damage	–	–	–	–	–	–
CC(C)(C)C(=O)Oc1c(-c2c(F)ccc(F)c2Cl)c(=O)[nH]c2nc(C(F)(F)F)ccc12 [D31]	–	0	0	1	0	0	–
CC(C)(C)C(=O)Oc1c(-c2c(F)ccc(F)c2Cl)c(=O)[nH]c2ccncc12 [B3]	little or no damage	–	–	–	–	–	–
O=c1[nH]c2nnccc2c(O)c1-c1c(F)cccc1Cl [E8]	little or no damage	–	–	–	–	–	–
O=c1c(-c2c(F)ccc(F)c2Cl)c(O)c2ccc(Cl)nc2n1CC(F)F [D17]	–	6	0	5	0	6	–
CC(=O)Oc1c(-c2c(F)ccc(F)c2Cl)c(=O)[nH]c2nncnc12 [E5]	little or no damage	–	–	–	–	–	–
Cn1c(=O)c(-c2c(F)ccc(F)c2Cl)c(OC(=O)C(C)(C)C)c2ccc(Cl)nc21 [D16]	–	2	0	2	0	2	–
O=c1[nH]c2ncccc2c(O)c1-c1ccc(Cl)cc1Cl [D1, 3-(2,4-dichloro-phenyl)-4-hydroxy-1H-[1,8]naphthyridin-2-one]	little or no damage	–	–	–	–	–	–
